Common to all, as to type: cell-based
The target of one assay is T1, BRAF V600E (Homo sapiens, UniProt P15056, V600E).
T1 construct: endogenous C-terminal HiBiT fusion tag on BRAF V600E allele; endogenous in cells; host or cells: A375 clone 1F10 (CRISPR-Cas9 knock-in of the HiBiT tag; parental A375 from ATCC)
Briefly: BRAF HiBiT degradation assay, C-terminal HiBiT-tagged BRAF V600E A375 cells (clone 1F10), Nano-Glo HiBiT Lytic assay. As to conditions: for Dmax: A-375. In short, it runs like this: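 A375 cells with CRISPR knock-in C-terminal HiBiT on endogenous BRAF V600E (clone 1F10) were seeded and cultured 24 h at 37 °C, then dosed with an 11-point half-log series (1 μM to 0.01 nM, duplicate, 0.2% DMSO). Lytic HiBiT luminescence gave % protein remaining; DC50 was the fitted concentration at 50%.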
(HiBiT is a short tag that completes a luciferase, so light tracks the accessible tagged protein.)

In the next assay the target is T2, BRAF G466V (Homo sapiens, UniProt P15056, G466V).
T2 construct: Horizon Discovery (HCT-116 BRAF−/− cells); host or cells: HCT-116 BRAF−/− cells, clone 8, lentiviral transduction
Briefly: BRAF HiBiT degradation assay, C-terminal HiBiT-tagged BRAF G466V overexpressed in HCT-116 BRAF−/− cells (clone 8), Nano-Glo HiBiT Lytic assay. In short, it runs like this: (§1)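 HCT-116 BRAF−/− cells stably expressing the tagged mutant were seeded at 3,000 cells/well and grown 24 h at 37 °C before an 11-point half-log series from 1 μM to 0.01 nM, run in duplicate at 0.2% DMSO. Lytic HiBiT luminescence gave % protein remaining versus DMSO controls; DC50 was the fitted concentration at 50%.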

The target in a further assay is T3, BRAF G469A (Homo sapiens, UniProt P15056, G469A).
T3 construct: Horizon Discovery (HCT-116 BRAF−/− cells); host or cells: HCT-116 BRAF−/− cells, clone 34, lentiviral transduction
Briefly: BRAF HiBiT degradation assay, C-terminal HiBiT-tagged BRAF G469A overexpressed in HCT-116 BRAF−/− cells (clone 34), Nano-Glo HiBiT Lytic assay. In short, it runs like this:
as §1

For another assay, the target named is T4, BRAF D594G (Homo sapiens, UniProt P15056, D594G).
T4 construct: Horizon Discovery (HCT-116 BRAF−/− cells); host or cells: HCT-116 BRAF−/− cells, clone 63, lentiviral transduction
The assay can be described thus: BRAF HiBiT degradation assay, C-terminal HiBiT-tagged BRAF D594G overexpressed in HCT-116 BRAF−/− cells (clone 63), Nano-Glo HiBiT Lytic assay. In short, it runs like this: as §1

Setting [1] is: A375 (BRAF V600E, Class 1), DC50 at 50% degradation.
The mark [2] stands for this setting: A375 (BRAF V600E, Class 1), observed Dmax, % protein degraded relative to DMSO control.
[3] abbreviates: BRAF G466V (Class 3), HCT-116 BRAF−/− cells, DC50 at 50% degradation.
The mark [4] stands for this setting: BRAF G466V (Class 3), HCT-116 BRAF−/− cells, observed Dmax relative to DMSO control.
Where [5] appears, read: BRAF G469A (Class 2), HCT-116 BRAF−/− cells, DC50 at 50% degradation.
Where [6] appears, read: BRAF G469A (Class 2), HCT-116 BRAF−/− cells, observed Dmax relative to DMSO control.
The mark [7] stands for this setting: BRAF D594G (Class 3), HCT-116 BRAF−/− cells, DC50 at 50% degradation.
[8] abbreviates: BRAF D594G (Class 3), HCT-116 BRAF−/− cells, observed Dmax relative to DMSO control.
[9] abbreviates: A375 (BRAF V600E), DC50 at 50%: fitted conc. at Y=50.
Where [10] appears, read: A375 (BRAF V600E), percentage protein degraded at maximal compound effect relative to DMSO.
[11] abbreviates: BRAF G466V, DC50 at 50%: fitted conc. at Y=50.
The mark [12] stands for this setting: HCT-116, BRAF G466V, percentage protein degraded at maximal compound effect relative to DMSO.
Where [13] appears, read: Class 2, BRAF G469A, DC50 at 50%: fitted conc. at Y=50.
[14] abbreviates: HCT-116, Class 2, BRAF G469A, percentage protein degraded at maximal compound effect relative to DMSO.
The mark [15] stands for this setting: BRAF D594G, DC50 at 50%: fitted conc. at Y=50.
[16] abbreviates: HCT-116, BRAF D594G, percentage protein degraded at maximal compound effect relative to DMSO.

Structures are written as SMILES.

T1 sequence (P15056 whole entry V600E, the tested form may be a part): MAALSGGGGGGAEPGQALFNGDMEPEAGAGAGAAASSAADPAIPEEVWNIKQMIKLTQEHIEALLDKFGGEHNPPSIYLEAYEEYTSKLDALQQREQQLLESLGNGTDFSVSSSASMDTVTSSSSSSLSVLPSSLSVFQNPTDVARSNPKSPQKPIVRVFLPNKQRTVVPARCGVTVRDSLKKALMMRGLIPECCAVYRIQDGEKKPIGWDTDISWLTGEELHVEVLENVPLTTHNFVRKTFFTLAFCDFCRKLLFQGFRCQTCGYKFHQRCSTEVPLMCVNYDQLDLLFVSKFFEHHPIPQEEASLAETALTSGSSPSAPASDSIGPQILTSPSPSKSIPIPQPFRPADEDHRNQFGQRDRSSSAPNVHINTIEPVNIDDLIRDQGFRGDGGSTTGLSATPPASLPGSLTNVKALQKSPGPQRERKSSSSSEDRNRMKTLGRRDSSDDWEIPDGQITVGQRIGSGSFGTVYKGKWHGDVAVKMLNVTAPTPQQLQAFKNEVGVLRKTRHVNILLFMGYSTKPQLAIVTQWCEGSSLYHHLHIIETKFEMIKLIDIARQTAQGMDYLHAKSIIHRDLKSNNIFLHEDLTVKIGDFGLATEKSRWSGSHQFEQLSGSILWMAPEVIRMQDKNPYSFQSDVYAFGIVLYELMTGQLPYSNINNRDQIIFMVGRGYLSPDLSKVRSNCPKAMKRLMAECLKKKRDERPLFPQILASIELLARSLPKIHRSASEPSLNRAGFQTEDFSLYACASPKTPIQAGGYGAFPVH
T3 sequence (P15056 whole entry G469A): as the sequence (P15056 whole entry V600E, the tested form may be a part) above, with G469A, E600V counted along it
T4 sequence (P15056 whole entry D594G): as the sequence (P15056 whole entry V600E, the tested form may be a part) above, with D594G, E600V counted along it
T2 sequence (P15056 whole entry G466V): as the sequence (P15056 whole entry V600E, the tested form may be a part) above, with G466V, E600V counted along it

The term DC50 denotes the concentration giving 50% degradation. The low end stands for a more potent degrader, the high end for a less potent degrader. Broadly, the Dmax is the largest share of the target that was removed. Higher therefore signals deep degradation. Turning to `C[C@@H]1CN(c2ccc(-n3cc(-c4cc(Cl)cc(NS(=O)(=O)N5CCCC5)c4F)c(-c4ccncc4)n3)c(F)c2)C[C@@H](C)N1CC1CCN(c2ccc(C3CCC(=O)NC3=O)cn2)CC1` (mixture of isomers) [Compound 382, N-(5-chloro-3-(1-(4-((3R,5R)-4-((1-(5-((RS)-2,6-dioxopiperidin-3-yl)pyridin-2-yl)piperidin-4-yl)methyl)-3,5-dimethylpiperazin-1-yl)-2-fluorophenyl)-3-(pyridin-4-yl)-1H-pyrazol-4-yl)-2-fluorophenyl)pyrrolidine-1-sulfonamide], the DC50 at BRAF V600E (setting [1]) was < 10 nM; on BRAF G466V (setting [3]), < 10 nM; at BRAF G469A (setting [5]), 10 to 50 nM; at BRAF D594G (setting [7]), < 10 nM. Besides, the Dmax on BRAF V600E (setting [2]), at BRAF G466V (setting [4]), at BRAF G469A (setting [6]) and at BRAF D594G (setting [8]) was > 70% in each case.
Take `O=C1CC[C@H](c2ccc(N3CCC(CN4CCN(c5ccc(-n6cc(-c7cc(Cl)cc(NS(=O)(=O)N8CCCC8)c7F)c(-c7ccncc7)n6)cc5)CC4)CC3)nc2)C(=O)N1` [Compound 285, N-{5-chloro-3-[1-(4-{4-[(1-{5-[(3R)-2,6-dioxopiperidin-3-yl]pyridin-2-yl}piperidin-4-yl)methyl]piperazin-1-yl}phenyl)-3-(pyridin-4-yl)-1H-pyrazol-4-yl]-2-fluorophenyl}pyrrolidine-1-sulfonamide]: the DC50 on BRAF V600E (setting [1]), on BRAF G466V (setting [3]), on BRAF G469A (setting [5]) and on BRAF D594G (setting [7]) was < 10 nM throughout. In addition, the Dmax at BRAF V600E (setting [2]) was > 70%; on BRAF G466V (setting [4]), > 70%; on BRAF G469A (setting [6]), > 70%; at BRAF D594G (setting [8]) it was 30 to 70%.
Take `CCCS(=O)(=O)Nc1cccc(-c2nc(C(C)(C)C)sc2-c2ccnc(NC3CC4(CCN(C(=O)CN5CCC(c6ccc(NC7CCC(=O)NC7=O)cc6)CC5)CC4)C3)n2)c1F` (racemic) [Compound 131, Rac-N-[3-(2-tert-butyl-5-{2-[(7-{2-[4-(4-{[(3R)-2,6-dioxopiperidin-3-yl]amino}phenyl)piperidin-1-yl]acetyl}-7-azaspiro[3.5]nonan-2-yl)amino]pyrimidin-4-yl}-1,3-thiazol-4-yl)-2-fluorophenyl]propane-1-sulfonamide]: the DC50 on BRAF V600E (setting [9]) was 10 to 50 nM; on BRAF G466V (setting [11]) it was > 500 nM; on BRAF G469A (setting [13]), > 500 nM; on BRAF D594G (setting [15]) it was > 500 nM. In addition, the Dmax on BRAF V600E (setting [10]) was > 70%; at BRAF G466V (setting [12]), 30 to 70%; at BRAF G469A (setting [14]) it was < 30%; at BRAF D594G (setting [16]), < 30%.
Take `CCCS(=O)(=O)Nc1cccc(-c2nc(C(C)(C)C)sc2-c2ccnc(Nc3ccc(N4CCN(C(=O)C5CCN(c6ccc(C7CCC(=O)NC7=O)cc6)CC5)CC4)cc3)n2)c1F` (racemic) [Compound 38, Rac-N-(3-{2-tert-butyl-5-[2-({4-[4-(1-{4-[(3R)-2,6-dioxopiperidin-3-yl]phenyl}piperidine-4-carbonyl)piperazin-1-yl]phenyl}amino)pyrimidin-4-yl]-1,3-thiazol-4-yl}-2-fluorophenyl)propane-1-sulfonamide]: the DC50 was < 10 nM at BRAF V600E (setting [9]), > 500 nM on BRAF G466V (setting [11]), 10 to 50 nM at BRAF G469A (setting [13]) and > 500 nM on BRAF D594G (setting [15]). The Dmax on BRAF V600E (setting [10]) was > 70%; on BRAF G466V (setting [12]), < 30%; at BRAF G469A (setting [14]), < 30%; on BRAF D594G (setting [16]), 30 to 70%.
`CCCS(=O)(=O)Nc1cccc(-c2nc(C(C)(C)C)sc2-c2ccnc(Nc3cccc(OC4CCN(C(=O)CN5CCC(c6ccc(NC7CCC(=O)NC7=O)cc6)CC5)CC4)c3)n2)c1F` (racemic) [Compound 96, Rac-N-(3-{2-tert-butyl-5-[2-({3-[(1-{2-[4-(4-{[(3R)-2,6-dioxopiperidin-3-yl]amino}phenyl)piperidin-1-yl]acetyl}piperidin-4-yl)oxy]phenyl}amino)pyrimidin-4-yl]-1,3-thiazol-4-yl}-2-fluorophenyl)propane-1-sulfonamide]: the DC50 is 10 to 50 nM on BRAF V600E (setting [9]), > 500 nM on BRAF G466V (setting [11]), > 500 nM at BRAF G469A (setting [13]) and > 500 nM on BRAF D594G (setting [15]). Further, the Dmax at BRAF V600E (setting [10]) was > 70%; at BRAF G466V (setting [12]) it was 30 to 70%; at BRAF G469A (setting [14]) it was 30 to 70%; at BRAF D594G (setting [16]) it was 30 to 70%.
Regarding `CCCS(=O)(=O)Nc1cccc(-c2cn(-c3ccc(C4CCN(CC5CCN(c6ccc([C@@H]7CCC(=O)NC7=O)cc6)CC5)CC4)cc3)nc2-c2ccncc2)c1F` [Compound 15, N-{3-[1-(4-{1-[(1-{4-[(3S)-2,6-dioxopiperidin-3-yl]phenyl}piperidin-4-yl)methyl]piperidin-4-yl}phenyl)-3-(pyridin-4-yl)-1H-pyrazol-4-yl]-2-fluorophenyl}propane-1-sulfonamide], the DC50 at BRAF V600E (setting [9]) was 10 to 50 nM; at BRAF G466V (setting [11]) it was 10 to 50 nM; at BRAF G469A (setting [13]) it was > 500 nM; at BRAF D594G (setting [15]) it was > 500 nM. The Dmax on BRAF V600E (setting [10]) is > 70%; on BRAF G466V (setting [12]), 30 to 70%; at BRAF G469A (setting [14]), < 30%; at BRAF D594G (setting [16]), 30 to 70%.
Take `CCCS(=O)(=O)Nc1cccc(-c2nc(C3CCN(C(=O)C4CCN(CC5CCN(c6ccc(C7CCC(=O)NC7=O)cn6)CC5)CC4)CC3)sc2-c2ccnc(NC)n2)c1F` (racemic) [Compound 217, Rac-N-{3-[2-(1-{1-[(1-{5-[(3R)-2,6-dioxopiperidin-3-yl]pyridin-2-yl}piperidin-4-yl)methyl]piperidine-4-carbonyl}piperidin-4-yl)-5-[2-(methylamino)pyrimidin-4-yl]-1,3-thiazol-4-yl]-2-fluorophenyl}propane-1-sulfonamide]: the DC50 at BRAF V600E (setting [9]) was 10 to 50 nM; on BRAF G466V (setting [11]), > 500 nM; on BRAF G469A (setting [13]), > 500 nM; at BRAF D594G (setting [15]) it was > 500 nM. Moreover, the Dmax at BRAF V600E (setting [10]) is > 70%; on BRAF G466V (setting [12]), 30 to 70%; at BRAF G469A (setting [14]), < 30%; on BRAF D594G (setting [16]) it was 30 to 70%.
Consider `CCN(C)S(=O)(=O)Nc1cccc(-c2nc(C(C)(C)C)sc2-c2ccnc(Nc3ccc(N4CCN(CC5CCN(c6ccc([C@@H]7CCC(=O)NC7=O)cc6)CC5)CC4)cn3)n2)c1F` [Compound 127, (3S)-3-{4-[4-({4-[6-({4-[2-tert-butyl-4-(3-{[ethyl(methyl)sulfamoyl]amino}-2-fluorophenyl)-1,3-thiazol-5-yl]pyrimidin-2-yl}amino)pyridin-3-yl]piperazin-1-yl}methyl)piperidin-1-yl]phenyl}piperidine-2,6-dione], for which the DC50 is 10 to 50 nM at BRAF V600E (setting [9]), 10 to 50 nM on BRAF G466V (setting [11]), 10 to 50 nM at BRAF G469A (setting [13]) and < 10 nM at BRAF D594G (setting [15]). Further, the Dmax is > 70% on BRAF V600E (setting [10]), 30 to 70% on BRAF G466V (setting [12]), 30 to 70% at BRAF G469A (setting [14]) and 30 to 70% on BRAF D594G (setting [16]).
`CCCS(=O)(=O)Nc1cccc(-c2nc(C(C)(C)C)sc2-c2ccnc(Nc3cccc(OC4CCN(C(=O)C5CCN(c6cc(C7CCC(=O)NC7=O)ccn6)CC5)CC4)c3)n2)c1F` (racemic) [Compound 100, Rac-N-[3-(2-tert-butyl-5-{2-[(3-{[1-(1-{4-[(3R)-2,6-dioxopiperidin-3-yl]pyridin-2-yl}piperidine-4-carbonyl)piperidin-4-yl]oxy}phenyl)amino]pyrimidin-4-yl}-1,3-thiazol-4-yl)-2-fluorophenyl]propane-1-sulfonamide]: the DC50 at BRAF V600E (setting [9]) is < 10 nM; at BRAF G466V (setting [11]), > 500 nM; at BRAF G469A (setting [13]), > 500 nM; on BRAF D594G (setting [15]), 50 to 500 nM. In addition, the Dmax was > 70% on BRAF V600E (setting [10]), < 30% at BRAF G466V (setting [12]), < 30% on BRAF G469A (setting [14]) and 30 to 70% on BRAF D594G (setting [16]).

The values are drawn from patent US20260317324A1, “BIFUNCTIONAL COMPOUNDS FOR DEGRADING BRAF VIA UBIQUITIN PROTEOSOME PATHWAY” (Nurix Therapeutics, Inc., priority 2023, published 2026).
